Measurements reported in patent US20240301319A1, “PERFUMING COMPOSITIONS” (FIRMNICH SA, priority 2017, published 2024).

Columns and labels:
[1] = Odor threshold and odor value of perfuming compounds (Tables 4 to 10)
[2] = Volatility of perfuming compounds (Tables 4 to 10), with top/middle/bottom note type; format: physicochemical
Method in brief: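 Note type follows from air volatility (μg/l): bottom 49–0.1, middle 99–50, top 70,000–100. Compounds are listed within watery, green, fruity, citrus, sweet, gourmand and woody families.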

[3] = Table 8, perfuming compounds having a sweet note
[4] = Table 8, perfuming compounds having a sweet note, note type by volatility
[5] = Table 10, perfuming compounds having a woody note, note type by volatility
[6] = perfuming compounds having a green note
[7] = Table 6, perfuming compounds having a fruity note
[8] = Table 6, perfuming compounds having a fruity note, note type by volatility
[9] = note type (Top/Middle/Bottom) by volatility, perfuming compounds having a green note
[10] = Table 9, perfuming compounds having a gourmand note, note type by volatility
[11] = Table 7, citrus note, equals volatility divided by odor threshold
[12] = Table 7, citrus note, top, middle or bottom note

## CC=CC(=O)C(C)CC (stereo not drawn) [5-METHYL-2-HEPTEN-4-ONE]
[1]; [3]
  Odor Threshold: 7.62E−07 μg/l air
  Odor Value: 7.26E+09
[2]; [3]
  Volatility: 5525.83 μg/l air
[2]; [4]
  Type: Top

## CC(=O)/C(C)=C(/C)C(C)C(C)(C)C (racemic)
[1]; Table 10, woody note
  Odor Threshold: 7.24E−02 μg/l air
[2]; [5]
  Type: Top
[2]; Table 10, woody note
  Volatility: 659.22 μg/l air

## CC1CC(C)(c2ccccc2)CO1 (racemic)
[1]; [6]
  Odor Threshold (μg/l air): 5.04E−04 μg/l air
[2]; [7]
  Volatility: 263.73 μg/l air
[2]; [8]
  Type: TOP (perfuming compounds having a volatility ranging from 70,000 to 100 μg/l in air are referred to as “top notes”)
[2]; [9]
  Type: Top
[2]; [6]
  Volatility (μg/l air): 263.73 μg/l air

## COc1cccc(OC)c1O [2,6-DIMETHOXYPHENOL]
[1]; [3]
  Odor Threshold: 8.01E−06 μg/l air
  Odor Value: 2.40E+06
[1]; Table 9, gourmand note
  Odor Threshold: 8.01E−06 μg/l air
[2]; [3]
  Volatility: 19.23 μg/l air
[2]; [4]
  Type: Bottom
[2]; Table 9, gourmand note
  Volatility: 19.23 μg/l air
[2]; [10]
  Type: Bottom

## CC(=O)OC(C)CC(C)(C)c1ccccc1 (racemic) [(+−)-1,3-DIMETHYL-3-PHENYLBUTYL ACETATE]
[1]; [7]
  Odor Threshold: 1.06E−02 μg/l air
  Odor Value: 4.77E+03
[1]; [6]
  Odor Threshold (μg/l air): 1.06E−02 μg/l air
[2]; [7]
  Volatility: 50.65 μg/l air
[2]; [8]
  Type: Middle
[2]; [9]
  Type: Middle
[2]; [6]
  Volatility (μg/l air): 50.65 μg/l air

## CCCCCCO [1-hexanol]
[1]; [6]
  Odor Threshold (μg/l air): 1.17E−01 μg/l air
[2]; [9]
  Type: Top
[2]; [6]
  Volatility (μg/l air): 2070.00 μg/l air

## CC(C)=CCCC(C)CCOCC=O (racemic)
[1]; Table 7, citrus note
  Odor Threshold (μg/l air): 8.95E−04 μg/l air
[1]; [11]
  Odor Value: 5.26E+03
[2]; Table 7, citrus note
  Volatility (μg/l air): 4.70 μg/l air
[2]; [12]
  Type: Bottom

## CC(C)Cc1ccc2ccccc2n1 [2-ISOBUTYLQUINOLINE]
[1]; [3]
  Odor Threshold: 1.93E−04 μg/l air
  Odor Value: 4.53E+04
[2]; [3]
  Volatility: 8.73 μg/l air
[2]; [4]
  Type: Bottom

## CCC(=CCC1CC=C(C)C1(C)C)CO (racemic)
[1]; Table 10, woody note
  Odor Threshold: 7.80E−05 μg/l air
[2]; [5]
  Type: Bottom
[2]; Table 10, woody note
  Volatility: 3.69 μg/l air

## CC(=O)OC(C)c1ccccc1 (racemic) [(+−)-1-PHENYLETHYL ACETATE]
[1]; Table 7, citrus note
  Odor Threshold (μg/l air): 4.43E−02 μg/l air
[1]; [11]
  Odor Value: 8.75E+03
[2]; [7]
  Volatility: 387.96 μg/l air
[2]; [8]
  Type: TOP (perfuming compounds having a volatility ranging from 70,000 to 100 μg/l in air are referred to as “top notes”)
[2]; Table 7, citrus note
  Volatility (μg/l air): 387.96 μg/l air
[2]; [12]
  Type: Top

## CCOC(=O)C12CCCC1C1CCC2C1 (stereo not drawn)
[1]; [7]
  Odor Threshold: 6.87E−05 μg/l air
  Odor Value: 1.63E+06
[1]; [6]
  Odor Threshold (μg/l air): 6.87E−05 μg/l air
[2]; [7]
  Volatility: 111.67 μg/l air
[2]; [8]
  Type: TOP (perfuming compounds having a volatility ranging from 70,000 to 100 μg/l in air are referred to as “top notes”)
[2]; [9]
  Type: Top
[2]; [6]
  Volatility (μg/l air): 111.67 μg/l air

## CC(C)(O)CCC1CCCCC1 [4-CYCLOHEXYL-2-METHYL-2-BUTANOL]
[1]; [7]
  Odor Threshold: 2.83E−02 μg/l air
  Odor Value: 2.81E+03
[1]; Table 7, citrus note
  Odor Threshold (μg/l air): 2.83E−02 μg/l air
[1]; [11]
  Odor Value: 2.81E+03
[2]; [7]
  Volatility: 79.34 μg/l air
[2]; [8]
  Type: Middle
[2]; Table 7, citrus note
  Volatility (μg/l air): 79.34 μg/l air
[2]; [12]
  Type: Middle

## tricyclo[5.2.1.0~2,6~]dec-3-en-8-yl acetate (A) + tricyclo[5.2.1.0~2,6~]dec-4-en-8-yl acetate (B)
[1]; Table 7, citrus note
  Odor Threshold (μg/l air): 7.19E−04 μg/l air
[1]; [11]
  Odor Value: 1.34E+05
[2]; Table 7, citrus note
  Volatility (μg/l air): 96.53 μg/l air
[2]; [12]
  Type: Middle

## C=CCOC(=O)CCCCCC [ALLYL HEPTANOATE]
[1]; [3]
  Odor Threshold: 1.75E−02 μg/l air
  Odor Value: 7.06E+04
[1]; Table 9, gourmand note
  Odor Threshold: 1.75E−02 μg/l air
[1]; [6]
  Odor Threshold (μg/l air): 1.75E−02 μg/l air
[2]; [7]
  Volatility: 1235.24 μg/l air
[2]; [8]
  Type: TOP (perfuming compounds having a volatility ranging from 70,000 to 100 μg/l in air are referred to as “top notes”)
[2]; [3]
  Volatility: 1235.24 μg/l air
[2]; [4]
  Type: Top
[2]; Table 9, gourmand note
  Volatility: 1235.24 μg/l air
[2]; [10]
  Type: Top
[2]; [9]
  Type: Top
[2]; [6]
  Volatility (μg/l air): 1235.24 μg/l air

## CC1=C[C@H](C)[C@H]2[C@H](CCC(C)(C)[C@H]2O)C1 (racemic)
[1]; [7]
  Odor Threshold: 8.15E−04 μg/l air
  Odor Value: 6.00E+04
[1]; [6]
  Odor Threshold (μg/l air): 8.15E−04 μg/l air
[2]; [7]
  Volatility: 48.90 μg/l air
[2]; [8]
  Type: Bottom
[2]; [9]
  Type: Bottom
[2]; [6]
  Volatility (μg/l air): 48.90 μg/l air
